# Tested on: THP1 cells
# Test: RNA-seq transcriptome profiling of THP1 cells in high glucose (differential expression, GO, GSEA)
# Type: cell-based, human
# Conditions: for biological processes (BPs) suppressed (GSEA): HG treated THP1 cells; for number of downregulated genes, compound+HG versus HG / number of upregulated genes, compound+HG versus HG / rank of TXNIP gene among differentially expressed genes / number of HG-induced genes inhibited by the compound (overlap): THP1, 25 mM glucose; for number of downregulated genes, compound+HG versus HG / number of upregulated genes, compound+HG versus HG / rank of TXNIP gene among differentially expressed genes / functions of downregulated genes (Gene ontology analysis): 5 uM; for number of downregulated genes, compound+HG versus HG / number of upregulated genes, compound+HG versus HG / functions of downregulated genes (Gene ontology analysis): fold change ≥2 and FDR<5%; for rank of TXNIP gene among differentially expressed genes: p-value close to 0; for number of HG-induced genes inhibited by the compound (overlap): 72 hours, 2.5 um compound, FC >2 or <0.5, FDR-adjusted p <0.05; for number of HG upregulated genes downregulated by both C30 and C38: THP1, FC≥1.5 & FDR<5%; for functions of downregulated genes (Gene ontology analysis) / normalized enrichment score (NES), HG-downregulated genes (GSEA) / normalized enrichment score (NES), HG-upregulated genes (GSEA): THP1 in HG; for normalized enrichment score (NES), HG-downregulated genes (GSEA) / normalized enrichment score (NES), HG-upregulated genes (GSEA): with versus without compound
# Method: FIGS. 10A-10C. C30 and C38 inhibit the same subset of genes induced by high glucose (HG). THP1 cell were cultured in RPMI 1640 medium under 25 mM glucose for 72 hours with […] C30 or C38. Total RNA was prepared and sent for RNA-seq. Differential expression analysis was conducted as described in the Methods. […] FIG. 10A: Overlap between HG-induce genes and C30-inhibited genes in THP1 cells. FIG. 10B: Overlap between HG-induce genes and C38-inhibited genes in THP1 cells. FIG. 10C: Overlap between common genes from FIG. 10A (60 genes) and common genes from FIG. 10B (64 genes).
# FIGS. 11A-11B. FIG. 11A: Heatmap of 60 high glucose-responsive and C30/C38-inhibited genes. Differential expression was calculated using these counts with edgeR (5, 6) version 3.0. After correcting for differences in library sizes, a fold change of >1.5 and a p-value of <0.05 were applied to select expressed genes. Overlapped genes were used for generating heatmap using Java TreeView. NG: THP1 under 5 mM glucose; HG: THP1, 25 mM glucose; C30: THP1, 25 mM glucose, 5 uM C30; C38: THP1, 25 mM glucose, 5 uM C38. All are replicates. From top to bottom: HSD11B1, EGR1, NFE2, CCL2, TIFAB, SH2D2A, UHRF1, CD52, TIMP3, TNF, S100P, PAQR4, LY6E, VPS9D-AS, RNASE3, MIR4258, GAS6, LIMD2, MBOAT7, CFD, PKMYT1, CHAC1, MFNG, DEFB1, ICAM2, NT5DC2, GPR35, HINT2, SEPT5-GP1BB, NRSN2, CDH24, SLC37A2, ADAT3, LST1, SPNS3, LTB, H2AFX, FUOM, FAM163A, BATF3, TMEM160, CITED4, MIR3661, TNFSF14, SLC6A9, TONSL, AVEN, SUSD3, TSPO, DDIT4, CKB, SLC22A31, HAAO, MF5SD3, SLC38A5, SIGMAR1, RGMA, DNPH1, ADGRE5, C20orf24, GATA2, RAB37, GDPD5, GAREM2, PIGQ, IMPA2, CRYBB2P1, UCP2, RELB, FOXL2, STC2, HOXA11-AS, MIR1282, RTN2, ZNF511, STARD10, NRM, NF2, ITGB7, POMGNT, KLF10, KLF2, NECAB2, C6orf223, IGFBP4, ACP2, TMEM161A, RHBDD2, YDJC, G0S2, FAM20C, TKTL1, PDIA3P1, HCST, FBXL15, LINC00116, FLNA, TXNIP, MIR3687-1, ARRDC4.
# FIG. 21. Volcano plots on gene expression changes induced by TXNIP inhibitors (C30 or C38) under high glucose (HG) conditions in THP1 cells. Gene expression in THP cells grown in HG were treated with and without C30 or C38 and profiled by RNAseq. Expression of RefSeq genes with rpkm≥5 in at least one sample were TMM-normalized and compared in cells treated with HG plus C30 or C38 (C30+HG or C38+HG) versus the cells treated with HG alone using edgeR (v 3.28.1). […] Each dot represents one gene with fold change (in log 2 format) in C30/C38+HG sample vs. HG as x-axis and significance level (in −log 10 format) as y-axis.
# FIG. 22. Enriched BPs on DEGs induced by TXNIP inhibitors. […] The enriched BPs were identified at FDR<5% using enrichGO R package and up to 15 BPs with the most significant enrichment are shown as horizontal bar plots. In each bar, number of DEGs in the BP is presented by y-axis and the enrichment significance is represented by different grey-scale colors indicated in the color bar.
# FIG. 24. Impact of C30/C38 treatment on HG-regulated genes by GSEA analysis. […] In the analysis for each treatment (C30 or C38), all the expressed genes were ranked based on the signed significance levels, −log10 Pvalue with signs determined by FC (positive if FC>1 and negative if FC<1), on each gene's expression difference between samples with and without treatment. The overall gene expression difference in THP1 cells (in HG condition) treated with or without C30/C38 on these two genesets were analyzed using pre-ranked GSEA analysis.
# FIG. 25. […] All the expressed genes were ranked based on the signed significance levels of each gene's expression difference (C30+HG vs. HG). […] In the plot shown, each bubble represents one geneset. […] Genesets related to BPs are represented by solid black bubbles and related to HG regulated genesets are shown as hollow black bubbles.
# FIG. 26. […] All the expressed genes were ranked based on the signed significance levels of each gene's expression difference (C38+HG vs. HG). […] In the plot, each bubble represents one geneset. […]
SMILES,biological processes (BPs) suppressed (GSEA),"number of downregulated genes, compound+HG versus HG [genes]","number of upregulated genes, compound+HG versus HG [genes]",rank of TXNIP gene among differentially expressed genes,number of HG-induced genes inhibited by the compound (overlap) [genes],number of HG upregulated genes downregulated by both C30 and C38 [genes],functions of downregulated genes (Gene ontology analysis),"normalized enrichment score (NES), HG-downregulated genes (GSEA)","normalized enrichment score (NES), HG-upregulated genes (GSEA)"
c1ccc(CCNc2ncnc3c2oc2ccccc23)cc1 [Compound C38],"suppressing BPs involved in metabolic process, DNA replication, immune response, splicing",537,741,most-significantly downregulated gene,64,23,substantially inhibit functions related to immune/inflammation response,1.83,−1.98
COc1cc(N2CC[C@@H](c3ccc4ccccc4c3)[C@H](O)C2)nc(N)n1 [Compound C30],"strongly suppresses BPs related to DNA replication, cell cycle, lipopolysaccharide metabolic process",571,746,most-significantly downregulated gene,60,23,substantially inhibit functions related to immune/inflammation response,1.63,−1.84

# — US11964984B2, “TXNIP-TRX complex inhibitors and methods of using the same” (CITY OF HOPE, priority 2020, dated 2024)
